Data reported in PubChem BioAssay AID248 (DTP/NCI, 2004).
Toxic doses and inconclusive results are not listed. Rule as the data show it: active = T/C of 150% or more; inactive = T/C below 125%.

Test system: L1210 leukemia ip in BDF1 mice, survival T/C
Test: NCI In Vivo Anticancer Drug Screen. Data for tumor model L1210 Leukemia (intraperitoneal) in B6D2F1 (BDF1) mice
Settings: higher = longer survival
In short: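 Tumor was transplanted into mice, which were then dosed with test compound or vehicle alone. Survival was recorded for each group, and the treated figure was expressed relative to the control figure.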

[1] = endpoint: mean survival time, dose: 50.0 mg/kg/injection, schedule: Q01DX001 (ip), vehicle: saline
[2] = endpoint: mean survival time, dose: 100.0 mg/kg/injection, schedule: Q01DX001 (ip), vehicle: saline
[3] = endpoint: mean survival time, dose: 200.0 mg/kg/injection, schedule: Q01DX001 (ip), vehicle: saline
[4] = endpoint: mean survival time, dose: 400.0 mg/kg/injection, schedule: Q01DX001 (ip), vehicle: saline
[5] = endpoint: mean survival time, dose: 100.0 mg/kg/injection, schedule: Q04DX003 (ip), vehicle: Klucel (hydroxypropylcellulose) (HPC)
[6] = endpoint: mean survival time, dose: 200.0 mg/kg/injection, schedule: Q04DX003 (ip), vehicle: Klucel (hydroxypropylcellulose) (HPC)
[7] = endpoint: mean survival time, dose: 400.0 mg/kg/injection, schedule: Q04DX003 (ip), vehicle: Klucel (hydroxypropylcellulose) (HPC)
[8] = endpoint: mean survival time, dose: 100.0 mg/kg/injection, schedule: Q01DX009 (ip), vehicle: saline with Tween-80
[9] = endpoint: mean survival time, dose: 100.0 mg/kg/injection, schedule: Q04DX003 (ip), vehicle: saline with Tween-80
[10] = endpoint: mean survival time, dose: 200.0 mg/kg/injection, schedule: Q01DX009 (ip), vehicle: saline with Tween-80
[11] = endpoint: mean survival time, dose: 200.0 mg/kg/injection, schedule: Q04DX003 (ip), vehicle: saline with Tween-80
[12] = endpoint: mean survival time, dose: 400.0 mg/kg/injection, schedule: Q01DX009 (ip), vehicle: saline with Tween-80
[13] = endpoint: mean survival time, dose: 400.0 mg/kg/injection, schedule: Q04DX003 (ip), vehicle: saline with Tween-80
[14] = endpoint: mean survival time, dose: 100.0 mg/kg/injection, schedule: Q01DX009 (ip), vehicle: Klucel (hydroxypropylcellulose) (HPC)
[15] = endpoint: mean survival time, dose: 200.0 mg/kg/injection, schedule: Q01DX009 (ip), vehicle: Klucel (hydroxypropylcellulose) (HPC)
[16] = endpoint: mean survival time, dose: 400.0 mg/kg/injection, schedule: Q01DX009 (ip), vehicle: Klucel (hydroxypropylcellulose) (HPC)

Measured: T/C

COc1ccc2c(c1)OC(OC)(c1ccccc1)C(O)(OC)C2=O (stereo not drawn)
inactive: [1] 96 % of control | [2] 98 % of control | [3] 96 % of control | [4] 98 % of control

O=C(O)CCCCCCCCCCCO
inactive: [5] 100 % of control | [6] 97 % of control | [7] 91 % of control

CC1(C)CC(=O)c2c(cc(OS(C)(=O)=O)cc2OS(C)(=O)=O)O1
inactive: endpoint: mean survival time, dose: 3.12 mg/kg/injection, schedule: Q01DX009 (ip), vehicle: Klucel (hydroxypropylcellulose) (HPC) 90 % of control | endpoint: mean survival time, dose: 6.25 mg/kg/injection, schedule: Q01DX009 (ip), vehicle: Klucel (hydroxypropylcellulose) (HPC) 97 % of control | endpoint: mean survival time, dose: 12.5 mg/kg/injection, schedule: Q01DX009 (ip), vehicle: Klucel (hydroxypropylcellulose) (HPC) 94 % of control

O=C(COc1ccc(Cl)c(Cl)c1)Nc1ccc[n+](Cc2ccc(S(=O)(=O)F)cc2Cl)c1
inactive: [8] 94 % of control

CCOC(=O)C1=C2c3ccc4ccccc4c3CCC2(C)C(=O)C1 (stereo not drawn)
inactive: endpoint: mean survival time, dose: 75.0 mg/kg/injection, schedule: Q01DX001 (sc), vehicle: steriod suspending solution 98 % of control | endpoint: mean survival time, dose: 75.0 mg/kg/injection, schedule: Q01DX009 (sc), vehicle: steriod suspending solution 106 % of control | endpoint: mean survival time, dose: 150.0 mg/kg/injection, schedule: Q01DX001 (sc), vehicle: steriod suspending solution 103 % of control | endpoint: mean survival time, dose: 150.0 mg/kg/injection, schedule: Q01DX009 (sc), vehicle: steriod suspending solution 101 % of control | endpoint: mean survival time, dose: 300.0 mg/kg/injection, schedule: Q01DX001 (sc), vehicle: steriod suspending solution 93 % of control | endpoint: mean survival time, dose: 300.0 mg/kg/injection, schedule: Q01DX009 (sc), vehicle: steriod suspending solution 105 % of control

CC1(C)CNC2OC1NCC2(C)C
inactive: endpoint: mean survival time, dose: 100.0 mg/kg/injection, schedule: Q01DX001 (ip), vehicle: saline sonified 112 % of control | endpoint: mean survival time, dose: 200.0 mg/kg/injection, schedule: Q01DX001 (ip), vehicle: saline sonified 89 % of control | endpoint: mean survival time, dose: 400.0 mg/kg/injection, schedule: Q01DX001 (ip), vehicle: saline sonified 95 % of control

CCCCCC[C@@H](O)C/C=C\CCCCCCCC(=O)OCCO
inactive: endpoint: median survival time, dose: 25.0 mg/kg/injection, schedule: Q01DX009 (ip), vehicle: saline 101 % of control | endpoint: median survival time, dose: 50.0 mg/kg/injection, schedule: Q01DX009 (ip), vehicle: saline 100 % of control | endpoint: median survival time, dose: 100.0 mg/kg/injection, schedule: Q01DX009 (ip), vehicle: saline 120 % of control | endpoint: median survival time, dose: 200.0 mg/kg/injection, schedule: Q01DX009 (ip), vehicle: saline 106 % of control | endpoint: median survival time, dose: 400.0 mg/kg/injection, schedule: Q01DX009 (ip), vehicle: saline 106 % of control | endpoint: median survival time, dose: 800.0 mg/kg/injection, schedule: Q01DX009 (ip), vehicle: saline 101 % of control

O=C(Cn1cc(F)c(=O)[nH]c1=O)c1ccc(Cl)s1
inactive: [8] 108 % of control | [9] 100 % of control | [10] 89 % of control | [11] 97 % of control | [12] 97 % of control | [13] 102 % of control

CCOC(=O)c1c(C)[nH]c(C)c1-c1ccccc1
inactive: [5] 112 % of control | [6] 104 % of control | [7] 105 % of control

CCC(N)C(O)C(Cl)(Cl)Cl (stereo not drawn)
inactive: [8] 103 % of control | [9] 89 % of control | [10] 98 % of control | [12] 109 % of control

O=S(=O)(c1ccc(Nc2nc(Cl)nc(Cl)n2)cc1)N(CCCl)CCCl
inactive: [14] 103 % of control | [15] 104 % of control | [16] 107 % of control

Clc1nc2ccccc2c2ccccc12
inactive: endpoint: mean survival time, dose: 43.0 mg/kg/injection, schedule: Q01DX001 (ip), vehicle: carboxymethylcellulose (CMC) 96 % of control | endpoint: mean survival time, dose: 85.0 mg/kg/injection, schedule: Q01DX001 (ip), vehicle: carboxymethylcellulose (CMC) 92 % of control | endpoint: mean survival time, dose: 170.0 mg/kg/injection, schedule: Q01DX001 (ip), vehicle: carboxymethylcellulose (CMC) 92 % of control

Cc1nc(Cl)c(Cl)[nH]1
inactive: [8] 97 % of control | [10] 111 % of control

CCCCC(CC)C(=O)CC(C)=O (stereo not drawn)
inactive: [1] 103 % of control | [2] 95 % of control | [3] 103 % of control | [4] 97 % of control

Oc1c(Br)cc(Nc2c3ccccc3nc3ccccc23)cc1Br
inactive: endpoint: mean survival time, dose: 100.0 mg/kg/injection, schedule: Q04DX002 (ip), vehicle: saline with Tween-80 100 % of control | endpoint: mean survival time, dose: 200.0 mg/kg/injection, schedule: Q04DX002 (ip), vehicle: saline with Tween-80 95 % of control | endpoint: mean survival time, dose: 400.0 mg/kg/injection, schedule: Q04DX002 (ip), vehicle: saline with Tween-80 100 % of control

CC(=N\N)/C(C)=N/N
inactive: endpoint: mean survival time, dose: 6.25 mg/kg/injection, schedule: Q01DX009 (ip), vehicle: saline with Tween-80 102 % of control | endpoint: mean survival time, dose: 12.5 mg/kg/injection, schedule: Q01DX009 (ip), vehicle: saline with Tween-80 100 % of control | endpoint: mean survival time, dose: 25.0 mg/kg/injection, schedule: Q01DX009 (ip), vehicle: saline with Tween-80 107 % of control

N#CC(=N)N1CCCCC1
inactive: endpoint: mean survival time, dose: 100.0 mg/kg/injection, schedule: Q04DX003 (ip), vehicle: saline 98 % of control | endpoint: mean survival time, dose: 200.0 mg/kg/injection, schedule: Q04DX003 (ip), vehicle: saline 112 % of control | endpoint: mean survival time, dose: 400.0 mg/kg/injection, schedule: Q04DX003 (ip), vehicle: saline 109 % of control

Nc1ccn(C2OC(COC3CCCCO3)C(OC3CCCCO3)C2OC2CCCCO2)c(=O)n1 (stereo not drawn)
inactive: endpoint: mean survival time, dose: 50.0 mg/kg/injection, schedule: Q01DX009 (ip), vehicle: saline 95 % of control | endpoint: mean survival time, dose: 100.0 mg/kg/injection, schedule: Q01DX005 (ip), vehicle: saline 110 % of control | endpoint: mean survival time, dose: 100.0 mg/kg/injection, schedule: Q01DX009 (ip), vehicle: saline 104 % of control | endpoint: mean survival time, dose: 200.0 mg/kg/injection, schedule: Q01DX005 (ip), vehicle: saline 94 % of control | endpoint: mean survival time, dose: 200.0 mg/kg/injection, schedule: Q01DX009 (ip), vehicle: saline 101 % of control

CSc1ccccc1C=Nc1ccccc1O
inactive: endpoint: mean survival time, dose: 100.0 mg/kg/injection, schedule: Q01DX001 (ip), vehicle: saline with Tween-80 101 % of control | endpoint: mean survival time, dose: 200.0 mg/kg/injection, schedule: Q01DX001 (ip), vehicle: saline with Tween-80 98 % of control | endpoint: mean survival time, dose: 400.0 mg/kg/injection, schedule: Q01DX001 (ip), vehicle: saline with Tween-80 103 % of control

CCOC(=O)/C(C)=C\C1C(C)=CCCC1(C)C (stereo not drawn)
inactive: [14] 104 % of control | [15] 102 % of control | [16] 96 % of control

CNC(=N)c1ccc(NC(=N)c2ccc(NC(=O)Nc3cccc(NC(=O)Nc4ccc(C(=N)Nc5ccc(C(=N)NC)cc5)cc4)c3)cc2)cc1
active: endpoint: mean survival time, dose: 1.0 mg/kg/injection, schedule: Q01DX Z (ip), vehicle: water 154 % of control | endpoint: mean survival time, dose: 2.0 mg/kg/injection, schedule: Q01DX Z (ip), vehicle: water 158 % of control | endpoint: mean survival time, dose: 3.5 mg/kg/injection, schedule: Q01DX Z (ip), vehicle: water 150 % of control | endpoint: mean survival time, dose: 4.0 mg/kg/injection, schedule: Q01DX Z (ip), vehicle: water 150 % of control | endpoint: mean survival time, dose: 5.0 mg/kg/injection, schedule: Q01DX015 (ip), vehicle: water 162 % of control | endpoint: mean survival time, dose: 7.0 mg/kg/injection, schedule: Q01DX Z (ip), vehicle: water 172 % of control | endpoint: mean survival time, dose: 7.5 mg/kg/injection, schedule: Q01DX015 (ip), vehicle: water 203 % of control | endpoint: mean survival time, dose: 10.0 mg/kg/injection, schedule: Q01DX015 (ip), vehicle: water 241 % of control | endpoint: mean survival time, dose: 10.0 mg/kg/injection, schedule: Q01DX Z (ip), vehicle: water 236 % of control | endpoint: mean survival time, dose: 14.25 mg/kg/injection, schedule: Q01DX Z (ip), vehicle: water 193 % of control | endpoint: mean survival time, dose: 15.0 mg/kg/injection, schedule: Q01DX015 (ip), vehicle: water 340 % of control
inactive: endpoint: mean survival time, dose: 0.31 mg/kg/injection, schedule: Q01DX015 (ip), vehicle: water 103 % of control | endpoint: mean survival time, dose: 0.62 mg/kg/injection, schedule: Q01DX015 (ip), vehicle: water 115 % of control | endpoint: mean survival time, dose: 28.5 mg/kg/injection, schedule: Q01DX Z (ip), vehicle: water 92 % of control

CC(=O)C1CCCCC1
inactive: [9] 107 % of control | [11] 109 % of control | [13] 96 % of control
